Test results taken from BindingDB's records for doi:10.1016/s0960-894x(03)00160-4 (Universidad Complutense, 2003).

Molecular target: T1, Alpha-1A/Alpha-1B/Alpha-1D adrenergic receptor (Rattus norvegicus, UniProt P15823+P43140+P23944)
T1 sequence (P15823 whole entry): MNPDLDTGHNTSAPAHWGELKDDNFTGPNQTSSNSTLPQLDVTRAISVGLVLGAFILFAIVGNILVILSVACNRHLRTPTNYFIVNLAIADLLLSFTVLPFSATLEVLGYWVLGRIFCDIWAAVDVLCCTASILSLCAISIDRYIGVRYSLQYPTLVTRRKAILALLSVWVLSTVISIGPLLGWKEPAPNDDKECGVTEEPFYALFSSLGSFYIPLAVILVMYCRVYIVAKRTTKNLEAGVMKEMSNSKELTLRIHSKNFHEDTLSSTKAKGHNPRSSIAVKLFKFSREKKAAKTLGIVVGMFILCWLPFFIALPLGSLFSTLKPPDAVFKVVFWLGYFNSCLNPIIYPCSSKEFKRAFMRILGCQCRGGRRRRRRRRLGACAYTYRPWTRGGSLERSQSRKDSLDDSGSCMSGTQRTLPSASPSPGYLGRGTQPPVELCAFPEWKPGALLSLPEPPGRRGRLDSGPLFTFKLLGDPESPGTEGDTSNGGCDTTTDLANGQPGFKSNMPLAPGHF
T1 sequence (P43140 whole entry): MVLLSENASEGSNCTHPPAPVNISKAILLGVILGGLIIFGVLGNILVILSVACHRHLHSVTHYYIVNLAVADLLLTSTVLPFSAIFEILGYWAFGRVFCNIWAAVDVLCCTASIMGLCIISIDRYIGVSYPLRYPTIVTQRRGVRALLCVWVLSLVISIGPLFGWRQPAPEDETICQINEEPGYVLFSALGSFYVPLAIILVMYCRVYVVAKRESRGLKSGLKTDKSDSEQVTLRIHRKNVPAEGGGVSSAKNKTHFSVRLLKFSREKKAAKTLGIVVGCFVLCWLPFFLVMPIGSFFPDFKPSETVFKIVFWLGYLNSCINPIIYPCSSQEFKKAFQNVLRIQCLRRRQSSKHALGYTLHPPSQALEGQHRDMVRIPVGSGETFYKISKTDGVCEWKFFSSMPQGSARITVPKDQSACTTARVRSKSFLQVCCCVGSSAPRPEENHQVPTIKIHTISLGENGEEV
T1 sequence (P23944 whole entry): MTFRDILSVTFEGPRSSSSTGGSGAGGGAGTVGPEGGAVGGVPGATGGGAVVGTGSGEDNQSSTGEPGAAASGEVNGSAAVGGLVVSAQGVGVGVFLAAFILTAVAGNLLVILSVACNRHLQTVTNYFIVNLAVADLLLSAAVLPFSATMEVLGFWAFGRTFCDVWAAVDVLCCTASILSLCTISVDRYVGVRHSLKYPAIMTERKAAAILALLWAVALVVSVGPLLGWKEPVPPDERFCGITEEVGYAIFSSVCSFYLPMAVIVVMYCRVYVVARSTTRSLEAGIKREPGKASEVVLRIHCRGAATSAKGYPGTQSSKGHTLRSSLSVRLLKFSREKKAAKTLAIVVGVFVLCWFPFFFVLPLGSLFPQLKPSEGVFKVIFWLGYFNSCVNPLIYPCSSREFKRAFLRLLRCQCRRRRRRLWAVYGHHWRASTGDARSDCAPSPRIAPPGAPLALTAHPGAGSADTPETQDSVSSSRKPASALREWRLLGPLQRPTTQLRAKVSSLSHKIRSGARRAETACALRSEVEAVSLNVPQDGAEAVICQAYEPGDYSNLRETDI
Assay: Binding affinity towards Alpha-1 adrenergic receptor in rat cerebral cortex membranes using [3H]prazosin as radioligand

Compound `O=c1n(CN2CCN(c3cccc4ccccc34)CC2)c(O)c2n1CCC2` [2-(4-Naphthalen-1-yl-piperazin-1-ylmethyl)-tetrahydro-pyrrolo[1,2-c]imidazole-1,3-dione] has a Ki of over 1000 nM.
